Source: patent publication US10556926B2, “Synthetic artificial peptides with antimicrobial effect” (priority 2014, dated 2020)
Read-outs that look alike come from different tables or passages of the source. No end group written: not given here.

Key:
[1] = system: human histiocytic lymphoma cell line U937; assay: Cytotoxicity, direct membrane damage (CytoTox 96), LD50; assay type: cell-based; settings: U937, two hours at 37° C., 0.25-64 μM
Protocol: The direct membrane damage was investigated with the help of the CytoTox 96 Non-Radioactive Cytotoxicity Assay (Promega, Mannheim, Germany). For this purpose, the cells were sedimented at 100 g for ten minutes at 4° C., and 50 μl of the resulting culture supernatant were added to 50 μl of the CytoTox substrate mix. After an incubation time of 30 minutes in the dark at room temperature, 50 μl of the CytoTox stopping solution were added to the sample and the absorption was measured at 490 nm. To determine the LD50 value, the measurement value of the negative control was deducted from the absorption values and divided by the measurement value of the permeabilization control. The calculated values were plotted graphically against the peptide concentration and fitted using the Origin pro 8.1 G Software according to a sigmoidal model and the LD50 values were ascertained from this. The calculation was carried out analogously to example 5 by reference to the solution of equation 5.1 for the case y=50, where y in this case corresponds to the relative cytotoxicity in percent and x corresponds to the peptide concentration in μM. Representative graphical evaluations of LD50 values are shown in FIG. 6 by reference to the measurement results for the reference peptides BMAP-27, protamine and KL-helix, and also the peptide O1 according to the invention.

Staphylococcus xylosus = system: Staphylococcus xylosus
Protocol: (§1) The minimum inhibitory concentration (MIC) of the peptides was carried out by way of example against gram(−) E. coli DH5α (and gram(+) Staphylococcus xylosus (both Deutsche Sammlung von Mikroorganismen and Zellkulturen, DSMZ) in a standardized microdilution method according to the general guidelines of the CLSI (Clinical and Laboratory Standards Institute 2006) and EUCAST (European Committee for Antimicrobial Susceptibility Testing of the European Society of Clinical Microbiology and Infectious Diseases 2003) with slight adaptations to the investigation of cationic antimicrobial peptides (Wiegand et al. 2008). The bacteria cells were cultivated in Mueller-Hinton-Boullion (MHB) to an optical density of 0.4 to 0.6 at 600 nm wavelength, corresponding to about 4·10^8 bacteria per ml. Then, the bacteria cultures were diluted to a bacteria concentration of about 1·10^5 bacteria per ml in sterile MHB. Using the peptides, series of 2-fold dilutions starting at 128 μM to the smallest dilution of 0.5 μM in MHB were prepared. The peptide dilutions were mixed with the dilute bacteria cultures in a […] in the chambers of a 96-well polypropylene microtiter plate (Starlab, Hamburg, Germany), so that the peptides were present in an end concentration between 64 μM and 0.25 μM at a bacteria concentration of 5·10^4 bacteria/ml. Sterile MHB served as negative control, and the positive control used as the corresponding bacteria concentration in MHB without the addition of peptide. The microtiter plates were incubated for 18 hours at 37° C. with shaking at 120 rpm in a climatically controlled chamber. After the incubation, the bacteria concentration was determined by renewed absorption measurement at a wavelength of 600 nm.

E. coli DH5α = system: E. coli DH5α
Protocol: as §1

[2] = system: human histiocytic lymphoma cell line U937; assay: Long-term growth inhibition, minimum toxic concentration (MTC)
Protocol: The cytotoxic potential of the antimicrobial peptides was determined by way of example by reference to the human histiocytic lymphoma cell line U937 (DSMZ). The influence of the peptides on the permeability of the cell membrane and their longer-term growth-inhibiting effect was investigated. 15 ml of RPMI 1640 medium with 2 mM glutamine and 10% FCS (Biochrom, Berlin, Germany) were inoculated with 1·10^5 cells per ml and cultivated for three days at 37° in T75 cell culture bottles (TPP, Trasadingen, Switzerland) with constant gassing with 5% CO2 in a climatically controlled chamber. The medium was admixed with 10 U/ml penicillin and […] streptomycin (both AppliChem, Darmstadt, Germany) to avoid bacterial contaminations, with no further antibiotics being added during the subsequent recultivation. Before each experiment, the cells were washed by centrifugation at 100 g for five minutes and subsequent resuspension in RPMI 1640 medium with 2 mM glutamine and 10% FCS in each case two times and adjusted to a concentration of 1·10^5 cells per ml. Finally, in each case 100 μl of the U937 cells were transferred to the reaction chambers of a sterile 96-well polypropylene microtiter plate and admixed with in each case 100 μl of a prediluted antimicrobial peptide in RPMI 1640 medium without antibiotic addition, such that end concentrations of in each case 5·10^4 cells per ml at peptide concentrations between 0.25 μM and 64 μM were present. The negative control used was samples without antimicrobial peptide, while Triton X-100 (AppliChem) was used in an end concentration of 5% as positive control for the permeabilization. The samples were cultivated for two hours at 37° C. and with continuous gassing with 5% CO2 in a climatically controlled chamber. Then, in each case 100 μl of each sample were removed and transferred to new sterile microtiter plates for determining the direct membrane damage. The remaining 100 μl of the samples were cultivated for at least four further days.
For this purpose, 10 μl of lysing solution were added to in each case 100 μl of cell suspension and incubated for 60 minutes at 37° C. Then, the cell culture supernatants were investigated as described above. The lowest peptide concentration at which complete suppression of the cell growth was established after four days was stipulated as the minimum toxic concentration (MTC).

[3] = MHB, 18 hours at 37° C., mean of four test series

| Substance | Toxicity LD50 [1] [µM] | MIC S. xylosus (Staphylococcus xylosus; 18 h) [µM] | MIC E. coli (E. coli DH5α; DH5α, 18 h) [µM] | Toxicity MTC (minimum toxic concentration) [2] [µM] | MIC S. xylosus (Staphylococcus xylosus; [3]) [µM] | MIC E. coli (E. coli DH5α; [3]) [µM] |
| --- | --- | --- | --- | --- | --- | --- |
| RRRFFFFFRRR [S7] | >64 | 0.5 | 4 |  |  |  |
| KLILKRKRKRILIK [A4] | >64 | 16 | 32 | >64 |  |  |
| KKKKKIIIIIDDDDK [D8] | >64 | >64 | >64 | >64 |  |  |
| KKKKKIIIIIDDDDD [D1] | >64 | >64 | >64 | >64 |  |  |
| KRKILILIGSG [M4] | >64 | >64 | >64 | >64 |  |  |
| KRKILILIKRK [M1] | >64 | 2 | 8 | >64 |  |  |
| LIKRK [N8, LIKRK] | >64 | >64 | >64 | >64 |  |  |
| GSGILILIKRK [M5] | >64 | >64 | >64 | >64 |  |  |
| KKKVVVVVKKK [S6] | >64 | 8 | 64 |  |  |  |
| KRKILILILIKRK [H1] | >64 | 1 | 8 | >64 |  |  |
| KRKILI [C7, KRKILI] | >64 | >64 | >64 | >64 |  |  |
| RRRIIIIIRRR [S1] | >64 | 2 | 8 |  |  |  |
| RKRKLILILIKRKR [A1] | >64 | 0.5 | 8 | >64 |  |  |
| ILILIKRK [N5] | >64 | 64 | 64 | >64 |  |  |
| KRKILIL [C6, KRKILIL] | >64 | >64 | >64 | >64 |  |  |
| KRKIL [C8, KRKIL] | >64 | >64 | >64 | >64 |  |  |
| KKKKKIIIIIKKKKD [D4] | >64 | 16 | 32 | >64 |  |  |
| KRKSGSGSKRK [M6] | >64 | >64 | >64 | >64 |  |  |
| LKLLKKLLKKLLKLL [KL-helix] |  | 2 | 4 | 8.0 |  |  |
| RRRLLLLLRRR [S3] | >64 | 1 | 8 |  |  |  |
| KKKKKIIIIIDDDKK [D7] | >64 | >64 | >64 | >64 |  |  |
| KKKKKIIIIIKKKKK [D5] | >64 | 2 | 16 | >64 |  |  |
| KKKIIIIIIKKK-NH2 [O1′] |  |  |  |  | 0.25 | 4 |
| KKKFFFFFKKK [S8] | >64 | 4 | 16 |  |  |  |
| KKKIIIIIKKK [S2] | >64 | 0.5 | 8 |  |  |  |
| KKKLLLLLKKK [S4] | >64 | 8 | 16 |  |  |  |
